Results reported in ChEMBL document CHEMBL1149622, “Synthesis, resolution, stereochemistry, and molecular modeling of (R)- and (S)-2-acetyl-1-(4'-chlorophenyl)-6,7-dimethoxy-1,2,3,4-tetrahydroisoquinoline AMPAR antagonists” (2007).

Tests used:
Mus musculus [1] = organism: Mus musculus; assay: Anticonvulsant activity against audiogenic clonus seizures in DBA/2 mouse after 30 mins; assay type: functional; details: DBA/2, 0.5 h
Mus musculus [2] = organism: Mus musculus; assay: Anticonvulsant activity against audiogenic tonus seizures in DBA/2 mouse after 30 mins; assay type: functional; details: DBA/2, 0.5 h

SMILES | ED50 (Mus musculus [1]) | ED50 (Mus musculus [2])
COc1cc2c(cc1OC)[C@@H](c1ccc(Cl)cc1)N(C(C)=O)CC2 | 4.1 µmol/kg | 2.05 µmol/kg
COc1cc2c(cc1OC)[C@H](c1ccc(Cl)cc1)N(C(C)=O)CC2 | 22.4 µmol/kg | 11.2 µmol/kg
COc1cc2c(cc1OC)C(c1ccc(Cl)cc1)N(C(C)=O)CC2 (racemic) | 6.51 µmol/kg | 3.53 µmol/kg
